Patent US20050112179A1, “Method to reduce stool odor of companion animals” (priority 2003, published 2005)
Read-outs that look alike come from different tables or passages of the source.

Columns and labels:
[1] = tested on: flatulence; conditions: dogs, literature report; cited from earlier work
[2] = tested on: stool odor compounds; conditions: one month; for Alcohols / Aldehydes / Carboxylic acids / Esters / Heterocycles / Indoles / Ketones / Phenols / Thiols/Sulfides: cat stool, area under chromatogram peak
Description: (§1) An experiment was conducted to characterize the effects of zinc acetate on stool odor compounds in dogs. To a control food, which was a dry food composed of kibbles containing a base level of 150 ppm zinc in the form of zinc acetate, various amounts of zinc in the form of zinc acetate were added as a coating on the kibbles. This was done by hand coating (sprinkling) fine zinc acetate powder on the kibble in a rotating drum in a two-step coating process after all other topical ingredients had been added by in-line enrobing. Ten dogs were fed control food with no added zinc, ten dogs were fed control food with 400 ppm zinc added, ten dogs were fed control food with 600 ppm zinc added, and ten dogs were fed control food with 900 ppm zinc added. The dogs were fed one of these diets for three weeks. At the end of three weeks, stool samples were collected and analyzed by putting a standard amount of stool in a glass container and incubating a solid phase microextraction fiber in the headspace. Volatiles bound to the fiber were eluted onto a gas chromatograph for analysis. The compounds were identified using a […].
An experiment was conducted to characterize the effects of zinc acetate on stool odor compounds in cats. To a control food, which was a dry food composed of kibbles containing a base level of 160 ppm zinc in the form of zinc acetate, various amounts of zinc were added in the form of zinc acetate as in Example 1. Eight cats were fed control food with no added zinc, eight cats were fed control food with 860 ppm zinc acetate added, seven cats were fed control food with 1200 ppm zinc acetate added, and seven cats were fed control food with 1800 ppm zinc acetate added. The cats were fed one of these diets for one month. At the end of the month, stool samples were collected and analyzed as described in Example 1.
(§2) The numbers indicate relative differences as measured by the area under the peak in a chromatogram.

[3] = tested on: stool odor compounds; conditions: 3 weeks; for Alcohols / Aldehydes / Carboxylic acids / Esters / Heterocycles / Indoles / Ketones / Phenols / Thiols/Sulfides: dog stool, area under chromatogram peak
Description: as §1, §2

[4] = 860 ppm added zinc on control food
[5] = 1200 ppm added zinc on control food
[6] = 1800 ppm added zinc on control food
[7] = 400 ppm added zinc on control food
[8] = 600 ppm added zinc on control food
[9] = 900 ppm added zinc on control food

## CC(=O)[O-].CC(=O)[O-].[Zn+2] [zinc acetate]
[1]
  number of flatulent episodes: decreased
  odor of gas: decreased
  total gas production: decreased
[2]; [4]
  Alcohols: 13.2 ± 27 ×10^4
  Aldehydes: 5.6 ± 3.6 ×10^4
  Carboxylic acids: 317 ± 160 ×10^4
  Esters: 78.4 ± 22.9 ×10^4
  Heterocycles: 0.62 ± 0.13 ×10^4
  Indoles: 0.39 ± 0.3 ×10^4
  Ketones: 25.6 ± 8.14 ×10^4
  Phenols: 10.3 ± 4.3 ×10^4
  Thiols/Sulfides: 6.2 ± 2.3 ×10^4
[2]; [5]
  Alcohols: 6.87 ± 10.8 ×10^4
  Aldehydes: 3.6 ± 1.7 ×10^4
  Carboxylic acids: 225 ± 78.1 ×10^4
  Esters: 76.9 ± 47.5 ×10^4
  Heterocycles: 0.62 ± 0.22 ×10^4
  Indoles: 0.88 ± 0.62 ×10^4
  Ketones: 60.7 ± 38.1 ×10^4
  Phenols: 12.6 ± 4.7 ×10^4
  Thiols/Sulfides: 7.7 ± 3.4 ×10^4
[2]; [6]
  Alcohols: 15.1 ± 23.3 ×10^4
  Aldehydes: 1.9 ± 1.6 ×10^4
  Carboxylic acids: 146 ± 144 ×10^4
  Esters: 28.7 ± 1.8 ×10^4
  Heterocycles: 0.46 ± 0.17 ×10^4
  Indoles: 2.3 ± 1.5 ×10^4
  Ketones: 42.2 ± 26.2 ×10^4
  Phenols: 7.2 ± 2.7 ×10^4
  Thiols/Sulfides: 6.8 ± 3.9 ×10^4
[2]; cats, 860-1800 ppm added zinc vs control food
  Effect of addition of zinc to the food on stool odor compound levels (in words): decreased stool levels of heterocycles, indoles, aldehydes and phenols
[3]; [7]
  Alcohols: 17.3 ± 12.5 ×10^5
  Aldehydes: 0.45 ± 0.3 ×10^3
  Carboxylic acids: 3.79 ± 3.55 ×10^4
  Esters: 34.3 ± 34.0 ×10^5
  Heterocycles: 0.94 ± 0.37 ×10^4
  Indoles: 2.64 ± 2.19 ×10^4
  Ketones: 179 ± 0.89 ×10^6
  Phenols: 9.62 ± 6.0 ×10^4
  Thiols/Sulfides: 8.69 ± 6.16 ×10^4
[3]; [8]
  Alcohols: 12.3 ± 0.9 ×10^5
  Aldehydes: 0.56 ± 0.51 ×10^3
  Carboxylic acids: 22.7 ± 32.2 ×10^4
  Esters: 34.1 ± 34.4 ×10^5
  Heterocycles: 1.19 ± 0.54 ×10^4
  Indoles: 2.0 ± 0.86 ×10^4
  Ketones: 201 ± 66.5 ×10^6
  Phenols: 9.17 ± 5.64 ×10^4
  Thiols/Sulfides: 5.14 ± 2.4 ×10^4
[3]; [9]
  Alcohols: 23.4 ± 14.3 ×10^5
  Aldehydes: 1.09 ± 1.29 ×10^3
  Carboxylic acids: 27.2 ± 21.2 ×10^4
  Esters: 32.6 ± 0.9 ×10^5
  Heterocycles: 1.13 ± 0.49 ×10^4
  Indoles: 1.78 ± 2.45 ×10^4
  Ketones: 160 ± 63.1 ×10^6
  Phenols: 4.08 ± 3.58 ×10^4
  Thiols/Sulfides: 4.91 ± 1.3 ×10^4
[3]; dogs, 400-900 ppm added zinc vs control food
  Effect of addition of zinc to the food on stool odor compound levels (in words): decreased levels of phenols, thiols and sulfides and indoles
